In general, EC50 refers to the midpoint of the concentration-response curve. Read a high EC50 as a need for much substance.

The values that follow come from patent US10092575B2, “Substituted thiophene- and furan-fused azolopyrimidine-5-(6H)-one compounds” (DART NEUROSCIENCE (CAYMAN) LTD., priority 2012, dated 2018).

For one experiment, the target named is human PDE1b enzyme (Homo sapiens (Human), UniProt Q01064). Description: PDE1b inhibitory assay (IMAP TR-FRET).
Details: not given
Compound `COc1ccc(Cn2c(=O)n3ncnc3c3cc(CN4CCC5(C4)CC5(F)F)sc32)cc1` (centres unmarked) [Example 192, 8-((1,1-Difluoro-5-azaspiro[2.4]heptan-5-yl)methyl)-6-(4-methoxybenzyl)thieno[3,2-e][1,2,4]triazolo[1,5-c]pyrimidin-5(6H)-one] showed an EC50 of 100 to 1000 nM.

As for `COc1ccc(Cn2c(=O)n3ncnc3c3c(CN4CCCC(CO)(CC(C)C)C4)csc32)cc1` (centres unmarked) [Example 195, 9-((3-(Hydroxymethyl)-3-isobutylpiperidin-1-yl)methyl)-6-(4-methoxybenzyl)thieno[3,2-e][1,2,4]triazolo[1,5-c]pyrimidin-5(6H)-one], the EC50 lay in the range of 100 to 1000 nM. The compound `CCN(Cc1cc2c(s1)n(Cc1ccc(OC)cc1)c(=O)n1ncnc21)C1CCOC(C)(C)C1` (centres unmarked) [Example 196] returned a 50% effective concentration (EC50) of 1000 to 10000 nM. The same measure, in the same setting: in the case of `CCN(Cc1csc2c1c1ncnn1c(=O)n2Cc1ccc(OC)cc1)CC1CCOCC1` [Example 197, 9-((Ethyl((tetrahydro-2H-pyran-4-yl)methyl)amino)methyl)-6-(4-methoxybenzyl)thieno[3,2-e][1,2,4]triazolo[1,5-c]pyrimidin-5(6H)-one] it was 100 to 1000 nM; in that of `CCN(Cc1cc2c(s1)n(Cc1ccc(OC)cc1)c(=O)n1ncnc21)CC1CCOCC1` [Example 198, 8-((Ethyl((tetrahydro-2H-pyran-4-yl)methyl)amino)methyl)-6-(4-methoxybenzyl)thieno[3,2-e][1,2,4]triazolo[1,5-c]pyrimidin-5(6H)-one], 1000 to 10000 nM; in that of `COc1ccc(Cn2c(=O)n3ncnc3c3cc(CN4C[C@@H](C)O[C@@H](C)C4)sc32)c(F)c1F` [Example 200, 6-(2,3-Difluoro-4-methoxybenzyl)-8-(((2R,6S)-2,6-dimethylmorpholino)methyl)thieno[3,2-e][1,2,4]triazolo[1,5-c]pyrimidin-5(6H)-one], 1000 to 10000 nM. `COc1ccc(Cn2c(=O)n3ncnc3c3cc(CN(C)C4CCOCC4)sc32)cc1` [Example 204, 6-(4-Methoxybenzyl)-8-((methyl(tetrahydro-2H-pyran-4-yl)amino)methyl)thieno[3,2-e][1,2,4]triazolo[1,5-c]pyrimidin-5(6H)-one] yielded an EC50 of 1000 to 10000 nM. On the same count and under the same terms, to `COc1ccc(Cn2c(=O)n3ncnc3c3cc(CN4CCOCC4)sc32)c(F)c1` [Example 208, 6-(2-Fluoro-4-methoxybenzyl)-8-(morpholinomethyl)thieno[3,2-e][1,2,4]triazolo[1,5-c]pyrimidin-5(6H)-one] belongs 100 to 1000 nM; to `COc1ccc(Cn2c(=O)n3ncnc3c3cc(CN(C)CC4(C)COC4)sc32)c(F)c1F` [Example 210, 6-(2,3-Difluoro-4-methoxybenzyl)-8-((methyl((3-methyloxetan-3-yl)methyl)amino)methyl)thieno[3,2-e][1,2,4]triazolo[1,5-c]pyrimidin-5(6H)-one], 100 to 1000 nM; to `COc1ccc(Cn2c(=O)n3ncnc3c3cc(CNCC4(C)COC4)sc32)cc1` [Example 211], 100 to 1000 nM.

As for `COc1ccc(Cn2c(=O)n3ncnc3c3cc(CN4CC(O)C4)sc32)c(F)c1F` [Example 212, 6-(2,3-Difluoro-4-methoxybenzyl)-8-((3-hydroxyazetidin-1-yl)methyl)thieno[3,2-e][1,2,4]triazolo[1,5-c]pyrimidin-5(6H)-one], the EC50 fell in the range of 100 to 1000 nM. As for `COc1ccc(Cn2c(=O)n3ncnc3c3cc(CN4CC(O)C4)sc32)c(F)c1` [Example 213, 6-(2-Fluoro-4-methoxybenzyl)-8-((3-hydroxyazetidin-1-yl)methyl)thieno[3,2-e][1,2,4]triazolo[1,5-c]pyrimidin-5(6H)-one], the EC50 was 100 to 1000 nM. As for `COc1ccc(Cn2c(=O)n3ncnc3c3cc(CN(C)C)sc32)c(F)c1F` [Example 214, 6-(2,3-Difluoro-4-methoxybenzyl)-8-((dimethylamino)methyl)thieno[3,2-e][1,2,4]triazolo[1,5-c]pyrimidin-5(6H)-one], the EC50 was 100 to 1000 nM. `COc1ccc(Cn2c(=O)n3ncnc3c3c(CN(C(C)C)C(C)C)csc32)cc1` [Example 215, 9-((Diisopropylamino)methyl)-6-(4-methoxybenzyl)thieno[3,2-e][1,2,4]triazolo[1,5-c]pyrimidin-5(6H)-one]: the EC50 fell in the range of 100 to 1000 nM. Compound `COc1ccc(Cn2c(=O)n3ncnc3c3c4c(sc32)CN(CC(C)C)CC4(F)F)cc1` [Example 218, 11,11-Difluoro-9-isobutyl-6-(4-methoxybenzyl)-8,9,10,11-tetrahydropyrido[4′,3′:4,5]thieno[3,2-e][1,2,4]triazolo[1,5-c]pyrimidin-5 (6H)-one] gave an EC50 of 100 to 1000 nM. As to `COc1ccc(Cn2c(=O)n3ncnc3c3c4c(sc32)NCCC4)cc1` [Example 221, 6-(4-Methoxybenzyl)-8,9,10,11-tetrahydropyrido[3′,2′:4,5]thieno[3,2-e][1,2,4]triazolo[1,5-c]pyrimidin-5(6H)-one], the EC50 lay within 100 to 1000 nM.

Still in this experiment, the particulars now being: negative log of half-maximal molar inhibitory concentration; 200 nM FAM-cAMP; reported as ranges.
For `COc1ccc(Cn2c(=O)n3ncnc3c3cc(CN4CCCN(C(C)=O)CC4)sc32)cc1` [Example 193, 8-((4-Acetyl-1,4-diazepan-1-yl)methyl)-6-(4-methoxybenzyl)thieno[3,2-e][1,2,4]triazolo[1,5-c]pyrimidin-5(6H)-one], the “PDE1b (pEC50)” value is above 7. Still for that read-out and setting: to `COc1ccc(Cn2c(=O)n3ncnc3c3cc(CN4CCCOCC4)sc32)c(F)c1F` [Example 194, 8-((1,4-Oxazepan-4-yl)methyl)-6-(2,3-difluoro-4-methoxybenzyl)thieno[3,2-e][1,2,4]triazolo[1,5-c]pyrimidin-5(6H)-one] belongs above 7; to `COc1ccc(Cn2c(=O)n3ncnc3c3c(CN(C)CC4CCOCC4)csc32)cc1` [Example 199, 6-(4-Methoxybenzyl)-9-((methyl((tetrahydro-2H-pyran-4-yl)methyl)amino)methyl)thieno[3,2-e][1,2,4]triazolo[1,5-c]pyrimidin-5(6H)-one], above 7. For `COc1ccc(Cn2c(=O)n3ncnc3c3cc(CN4C[C@@H](C)O[C@@H](C)C4)sc32)cc1F` [Example 201, 8-(((2R,6S)-2,6-Dimethylmorpholino)methyl)-6-(3-fluoro-4-methoxybenzyl)thieno[3,2-e][1,2,4]triazolo[1,5-c]pyrimidin-5(6H)-one], the “PDE1b (pEC50)” value is recorded as above 7. `COc1ccc(Cn2c(=O)n3ncnc3c3c(CNCC4CCOCC4)csc32)cc1` [Example 203, 6-(4-Methoxybenzyl)-9-((((tetrahydro-2H-pyran-4-yl)methyl)amino)methyl)thieno[3,2-e][1,2,4]triazolo[1,5-c]pyrimidin-5(6H)-one]: the “PDE1b (pEC50)” value is above 7. As to `C[C@@H]1CN(Cc2cc3c(s2)n(Cc2ccc(F)c(Cl)c2)c(=O)n2ncnc32)C[C@H](C)O1` [Example 205, 6-(3-Chloro-4-fluorobenzyl)-8-(((2R,6S)-2,6-dimethylmorpholino)methyl)thieno[3,2-e][1,2,4]triazolo[1,5-c]pyrimidin-5(6H)-one], the “PDE1b (pEC50)” value is given as above 7. In the case of `COc1ccc(Cn2c(=O)n3ncnc3c3cc(CN4CCS(=O)(=O)CC4)sc32)cc1` [Example 206, 8-((1,1-Dioxidothiomorpholino)methyl)-6-(4-methoxybenzyl)thieno[3,2-e][1,2,4]triazolo[1,5-c]pyrimidin-5(6H)-one], the “PDE1b (pEC50)” value is above 7. With `COc1ccc(Cn2c(=O)n3ncnc3c3cc(CN4CCOCC4)sc32)cc1F` [Example 207, 6-(3-Fluoro-4-methoxybenzyl)-8-(morpholinomethyl)thieno[3,2-e][1,2,4]triazolo[1,5-c]pyrimidin-5(6H)-one], the “PDE1b (pEC50)” value is above 7. For the compound `O=c1n(Cc2ccc(F)c(Cl)c2)c2sc(CN3CCOCC3)cc2c2ncnn12` [Example 209, 6-(3-Chloro-4-fluorobenzyl)-8-(morpholinomethyl)thieno[3,2-e][1,2,4]triazolo[1,5-c]pyrimidin-5(6H)-one], the “PDE1b (pEC50)” value is above 7.

As to `COc1ccc(Cn2c(=O)n3ncnc3c3c4c(sc32)CCN(CC2CCOCC2)C4)cc1` [Example 216, 6-(4-Methoxybenzyl)-10-((tetrahydro-2H-pyran-4-yl)methyl)-8,9,10,11-tetrahydropyrido[3′,4′:4,5]thieno[3,2-e][1,2,4]triazolo[1,5-c]pyrimidin-5(6H)-one], the “PDE1b (pEC50)” value was below 5. `COc1ccc(Cn2c(=O)n3ncnc3c3c4c(sc32)CNCCC4)cc1` [Example 217, 6-(4-Methoxybenzyl)-6,8,9,10,11,12-hexahydro-5H-[1,2,4]triazolo[1″,5″:1′,6′]pyrimido[5′,4′:4,5]thieno[2,3-c]azepin-5-one]: the “PDE1b (pEC50)” value was above 7. For the compound `COc1ccc(Cn2c(=O)n3ncnc3c3c4c(sc32)CNCC4(F)F)cc1` [Example 219, 11,11-Difluoro-6-(4-methoxybenzyl)-8,9,10,11-tetrahydropyrido[4′,3′:4,5]thieno[3,2-e][1,2,4]triazolo[1,5-c]pyrimidin-5 (6H)-one], the “PDE1b (pEC50)” value was above 7. On to `COc1ccc(Cn2c(=O)n3ncnc3c3c4c(sc32)NCCC4)cc1` [Example 220, 6-(4-Methoxybenzyl)-8,9,10,11-tetrahydropyrido[3′,2′:4,5]thieno[3,2-e][1,2,4]triazolo[1,5-c]pyrimidin-5(6H)-one], for which the “PDE1b (pEC50)” value was above 7.
